A word on the pEC50: it is the negative decadic logarithm of the EC50, by convention in mol/L. Usually pIC50 stands for the IC50 on a negative log10 scale, so that one unit is a factor of ten. High values mean a small IC50, low ones a large IC50.

Data on 73 compounds can be found in PubChem BioAssay AID179 (DTP/NCI, 2004).

SMILES strings stand for the structures. pEC50, pIC50: −log10 of the molar value. Where “and” joins values, the source holds several entries; their conditions need not be identical. Equal values may be shown once. Calls of active or inactive are those of the source.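 The calls were made as follows: active = compounds giving half or more protection of infected cells from virus-caused growth loss, again on retest; inactive = the rest.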 Where a SMILES comes first, the peptide text is derived from it. The star is where a group is joined. Cbz = O=C(OCc1ccccc1)*

The test system of this test is CEM cells HIV-1 protection, formazan growth assay. Briefly: NCI AIDS Antiviral Assay. The following applies: for pIC50: measured here: growth of uninfected CEM cells. The gist of the method:
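Human CEM cells, uninfected and HIV-1-infected, exposed to five drug concentrations; growth measured by soluble formazan assay and scored as percent protection from infection, with protecting compounds retested.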

In the case of `C=CCN(N=O)C(=O)NCCCC(NC(C)=O)C(=O)NCc1ccccc1` (stereo not given), the pEC50 is less than 3.18 and the pIC50 was less than 3.18.

`O=S(=O)(NC1CCCCC1)c1ccc2c(c1)OCCOCCOCCOCCO2`: the pEC50 is less than 3.70 and the pIC50 was less than 3.70.

Regarding `Cn1ccnc1.[O-][Cl+3]([O-])([O-])[O-].[Pt+2].c1ccc(-c2cccc(-c3ccccn3)n2)nc1`, the pEC50 is less than 3.70 and the negative logarithm of the IC50 (pIC50) was 4.87. For `CCCc1cc(=O)oc2c(C=O)c(O)cc(O)c12`, the pEC50 was less than 3.70 and the pIC50 was 4.20. Take `Nc1ncnc2c1ncn2C1OC(CO)C(O)C1O` (stereo not given): the result was inactive. As to `O=C(/C=C/c1ccc(Cl)c(Cl)c1)CCN1CCN(CCC(=O)/C=C/c2ccc(Cl)c(Cl)c2)CC1`, the pEC50 is less than 3.70 and the pIC50 is 5.72. For `O[C@@H]1CCN(Cc2ccccc2)C[C@@H]1CNC12CC3CC(CC(C3)C1)C2`, in that order: less than 4.14 and less than 4.14. For `CCSC(=O)/C=C1\CN(C(=O)OC(C)(C)C)C1C(=O)OC(C)(C)C` (stereo not given), in that order: less than 3.70 and 5.96. With `CC(=O)Oc1ccc2c(oc(=O)c3nc(C)oc32)c1C`, the pEC50 is less than 3.70 and the pIC50 was 3.84. In the case of `COc1cccc2c(=O)oc(-c3ccc(C(C)(C)C)cc3)nc12`, the pEC50 is less than 3.70 and the pIC50 is 4.19. The like results for `Cc1ccc(C2SCC(=O)N2NC(=O)c2ccncc2)s1` (stereo not given) were, in that order, less than 3.70 and less than 3.70.

On to `CCOC(=O)C1C(=O)c2ccccc2CN1Cc1ccccc1` (stereo not given), for which the result was inactive. On the same count and under the same terms, the entry for `[N-]=[N+]=Nc1c([N+](=O)[O-])c(=O)n2c3c(cccc13)CCC2` is “inactive”; for `COc1ccc2c(c1)-c1c(c3cc(OC)ccc3n1CCN(C)C)CC2` it is “inactive”. As for `Cc1c2c(n(Cc3ccccn3)c1C)NN=C(C#N)S2(=O)=O`, the pEC50 was less than 3.70 and the pIC50 is less than 3.70. Take `O=C(O)c1onc2cc([N+](=O)[O-])ccc12`: the pEC50 was less than 2.92 and the pIC50 is 3.66. The like results for `O=C1c2cccc3cccc(c23)C(=O)N1c1ncn[nH]1` were, in that order, less than 4.00 and less than 4.00.

In the case of `Cc1ccc(S(=O)(=O)C(CC(NC=O)S(=O)(=O)c2ccc(C)cc2)NC=O)cc1` (stereo not given), the outcome was inactive.

As for `CCn1c(=O)c(N=O)c(N)n(C2CC2)c1=O`, the pEC50 is less than 3.70 and the pIC50 was less than 3.70. Turning to `O=c1ccn(/C=C\c2nc3ccccc3[nH]c2=O)c(=S)[nH]1`, the pEC50 was less than 3.70 and the pIC50 was less than 3.70. In the case of `C=CCC(CCC(C)=O)(C(=O)OCC)C(=O)OCC`, the pEC50 was less than 3.70 and the pIC50 was less than 3.70.

`O=[N+]([O-])c1ccc2nc(/C=C(\O)c3ccccc3)c(/C=C(\O)c3ccccc3)nc2c1`: the pEC50 is less than 3.70 and the pIC50 was 4.70. The like results for `CCOC(=O)CCC(NC(=O)OCc1ccccc1)C(=O)NC(CC(=O)OC)C(=O)NC(CC(=O)OC)C(=O)NC(CCC(=O)OCC)C(=O)OCC` (stereo not given) (Cbz-E(OEt)D(OMe)D(OMe)E(OEt)-OEt; configuration not given here) were, in that order, less than 4.30 and less than 4.30. The like results for `O=C(Nc1ccccc1)c1cc(S(=O)(=O)N2CCNC2=O)c(S)cc1Cl` were, in that order, 3.95 and 3.88. On to `CCc1n[nH]c(=O)n1N`, for which the outcome was inactive. Turning to `CC1OC(Oc2ccc3c(=O)c(-c4ccc(O)cc4)coc3c2)C(O)C(O)C1O` (stereo not given), the pEC50 was less than 3.70 and the pIC50 is 4.03.

On to `Cc1ccc(C)c(NC(=O)c2cc(-c3ccc([N+](=O)[O-])cc3)nc(N)n2)c1`, for which the pEC50 is less than 4.15 and the pIC50 was less than 4.15. As for `CCN(CCCN(CC)C(=O)Nc1ccccc1)C(=O)Nc1ccccc1`, the pEC50 was less than 3.70 and the pIC50 was 3.81. For `NC(=O)CS(=O)(=O)NC(N)=O`, in that order: less than 3.70 and less than 3.70. For `C=CC[C@@H](N)C(=O)N(C)[C@@H](C)[C@@H](O)c1ccccc1`, in that order: less than 3.70 and less than 3.70.

As for `O=c1c2ccccc2[se]n1-c1cccnc1`, the pEC50 was 5.10 and the pIC50 is 4.44.

In the case of `CCOC(=O)C1=C(O)C2C3CC4C2C(O)=C(C(=O)OCC)C2C1C3C42` (stereo not given), the pEC50 was less than 3.70 and the pIC50 was 4.03. The like results for `COc1cc2cnc3c4ccccc4ccc3c2cc1OC` were, in that order, less than 4.19 and less than 4.19. As for `C=CCC(C)C(=O)CP1(=O)OC(C)CCN1C(C)(C)C` (stereo not given), the outcome was inactive. For `COc1ccc2c(C)c(CNc3ccccc3)c(=O)oc2c1OC`, the pEC50 was less than 4.96 and the pIC50 is less than 4.96. Take `CCCCC(C#N)C(=O)NC(N)=O` (stereo not given): the pEC50 is less than 4.40 and the pIC50 is less than 4.40. As to `C=CCc1cc(OC)c2c(c1)C(O)CC(c1ccc(OC)c(OC)c1)O2` (stereo not given), the pEC50 is less than 3.58 and the pIC50 was less than 3.58. On to `O=Cc1ccc(-c2cccc([N+](=O)[O-])c2)s1`, for which the pEC50 was less than 3.70 and the pIC50 is 3.78. The like results for `CCOc1ccccc1NC(=O)CCC(=O)OC` were, in that order, less than 3.00 and less than 3.00. The like results for `COC1=CC2OC3OC(=O)CC3C2C(OCc2ccccc2)=C1` (stereo not given) were, in that order, less than 4.50 and less than 4.50. For `Cc1cccnc1CC(O)c1ccccc1` (stereo not given), in that order: less than 3.70 and 3.97. Consider `CCOC(=O)c1ccc(C(=O)/C(C#N)=C2\CCCN2)[nH]1`, for which the pEC50 was less than 3.70 and the pIC50 was 4.05.

Take `CN(C)c1ccc(C2CC(c3ccc4ccccc4c3O)=NN2)cc1` (stereo not given): the pEC50 is less than 3.70 and the pIC50 is 4.22. The like results for `O=C(c1ccco1)N1CCCN(C(=O)c2ccco2)C1=S` were, in that order, less than 3.70 and 4.55. For `Cn1c(=O)c2nc3c(=O)n(C)c(=O)n(C)c3nc2n(C)c1=O`, in that order: less than 3.70 and 4.10. Turning to `Cc1cc(NC(=O)NC/C(Cl)=C/Cl)c2ccccc2n1`, the pEC50 was less than 3.70 and the pIC50 is 4.53. Turning to `O=C1/C(=C/c2ccccc2)CCc2ccc([N+](=O)[O-])cc21`, the pEC50 was less than 3.70 and the pIC50 is 4.95. The like results for `O=C(Cc1ccccc1)NN1C(=O)C(Cl)C1c1cc(Br)ccc1O` (stereo not given) were, in that order, less than 4.90 and 5.16. `COc1ccc(S(=O)(=O)c2ccccc2[N+](=O)[O-])cc1`: the result was active.

`COC(=O)c1cc(C(=CCC(=O)O)c2cc(Cl)c(OC)c(C(=O)OC)c2)cc(Cl)c1OC`: the pEC50 is less than 3.70 and the pIC50 was 4.01. Turning to `COC1/C=C/OC2(C)Oc3c(C)c(O)c4c(O)c(cc(OCC(=O)N5CCOCC5C)c4c3C2=O)NC(=O)/C(C)=C/C=C/C(C)C(O)C(C)C(O)C(C)C(OC(C)=O)C1C` (stereo not given), the pEC50 was less than 3.70 and the negative logarithm of the IC50 (pIC50) was 4.44. For `CN(CCn1cnc2c1c(=O)n(C)c(=O)n2C)C1CCCCC1`, in that order: less than 3.70 and less than 3.70. As to `CNC(=O)c1n[nH]nc1Sc1c([N+](=O)[O-])ncn1C`, the outcome was inactive. With `Nc1nnc(N)c2[nH]cnc12`, the pEC50 was less than 3.70 and the pIC50 is less than 3.70. On to `O=C(O)CCCC(=O)Nn1c(Cc2ccc(Cl)cc2)n[nH]c1=O`, for which the pEC50 is less than 3.70 and the pIC50 is less than 3.70.

With `O=C(c1ccccc1)c1ccc(SSc2ccc(C(=O)c3ccccc3)cc2[N+](=O)[O-])c([N+](=O)[O-])c1`, the pEC50 was less than 3.70 and the pIC50 is 4.86. For `Cc1oc2c(C)c3oc(=O)cc(C)c3cc2c1CO`, in that order: less than 3.70 and 4.52. Take `Cc1ccc(CC2(OCCN(C)C)CCC(C(C)(C)C)CC2)cc1` (stereo not given): the pEC50 was less than 3.70; the pIC50 is 5.50 and 5.53.

Consider `O=C1O[C@H]2C3C4CCC(C4[C@@H]2I)[C@H]13` (stereo not given in full), for which the pEC50 is less than 3.70 and the pIC50 was less than 3.70.

Consider `CC1=CC(=O)/C(=C/N2CCNC2=S)C(=O)O1`, for which the pEC50 was less than 3.70 and the pIC50 was less than 3.70. `CC1=C(C(=O)NCCCN(CCO)CCO)CC(C(=O)NCCCN(CCO)CCO)=C(C)N1`: the pEC50 was less than 3.70 and the pIC50 is 3.95. `CC1(C)CC2(S(=O)(=O)c3ccccc3)ON1CC2S(=O)(=O)c1ccccc1` (stereo not given): the outcome was inactive. For the compound `CCCCS(=O)(=O)c1ccc(O)c(C(=O)Nc2cccc(C(F)(F)F)c2)c1`, the pEC50 was less than 3.77 and the pIC50 is 5.72.

Turning to `COC1(C)CP(=O)(OC(C)C)CC(C)=C1Cl` (stereo not given), the pEC50 was less than 4.70 and the pIC50 was 5.12. Consider `CCN(CC)C(=S)SCn1nc(Cl)c2ccc([N+](=O)[O-])cc21`, for which the pEC50 was less than 4.16 and the pIC50 was 4.39. For `CC(C)[N+](C)(C)CC(O)COc1cccc2ccccc12` (stereo not given), in that order: less than 3.70 and less than 3.70. The like results for `CCOC(=O)c1c(SCCO)n(-c2ccccc2)c(=S)n(-c2ccccc2)c1=O` were, in that order, less than 3.70 and less than 3.70. The like results for `CC(=O)c1c2n(n(-c3ccccc3)c1=O)C(=O)c1nccnc1-2` were, in that order, less than 3.70 and less than 3.70. As to `CC(C)(C)C#CI1OC(=O)c2ccccc21`, the pEC50 is less than 3.70 and the pIC50 is 5.67.

Turning to `C/C(=C\CCC1=CC(=O)OC1)CCC1C2C(=O)CC(C)[C@@]3(C)CC[C@]1(C)[C@@]23C` (stereo not given in full), the pEC50 is less than 3.70 and the pIC50 is 4.46. The like results for `CC1CCCc2c(C#N)c(N)nc(-c3ccc(Cl)cc3)c21` (stereo not given) were, in that order, less than 3.70 and 4.57. On to `CC[n+]1c(/C=C/c2ccc(N(CCCl)CCCl)cc2)ccc2cc(Br)ccc21`, for which the outcome was inactive. As to `c1ccc2c3c([nH]c2c1)C1(CCCCC1)c1c([nH]c2ccccc12)C31CCCCC1`, the pEC50 was less than 5.16 and the pIC50 is less than 5.16.
